The numbers were not newly measured in patent publication US20260114445A1, “STABLE ANTIMICROBIAL FORMULATION CONCENTRATE” (Kimberly-Clark Worldwide, Inc., priority 2020, published 2026), which cites them from elsewhere.

The conditions of the series: temperature not given.

In the case of `CCCCCCCC(=O)NO` [Caprylhydroxamic Acid], the water solubility entry is reported as “approximately 0.14%”.
